For eight cell lines, relative viability results are on record in the supplement of paper PMC10307832.

Experiment in all cases: relative viability (nuclei count vs DMSO), 5 days (fraction); higher = more cells survive
Compound in test [1]: C=CCc1cccc(/C=N/NC(=O)CN2CCN(Cc3ccccc3)CC2)c1O [PAC-1] + CC(=O)Nc1cccc(-n2c(=O)n(C3CC3)c(=O)c3c(Nc4ccc(I)cc4F)n(C)c(=O)c(C)c32)c1 [Trametinib] (partner 0.02 µM)
The gist of the method:
(§1)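 A single step with final 0.05% Triton X-100, 1% formaldehyde and 1 ug/ml Hoechst fixed the cells and stained nuclei 5 days after treatment. Lung cancer cell lines in 1536-well plates had been treated by pin tool the day after seeding with one drug alone or a fixed anchor-drug dose plus five library-drug doses (not always all listed) in √10 steps, and nuclei were counted on 4× images. Relative viability is the ratio of nuclei in treated wells to nuclei in vehicle wells, taken as the median of duplicate plates.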

Compound in test [2]: C=CC(=O)Nc1cc(-n2c(=O)ccc3cnc4ccc(-c5ccc(NS(C)(=O)=O)cc5)cc4c32)ccc1C [BMX-IN-1] + COc1cc2c(Oc3ccc(NC(=O)C4(C(=O)Nc5ccc(F)cc5)CC4)cc3F)ccnc2cc1OCCCN1CCOCC1 [Foretinib] (partner 0.25 µM)
The gist of the method: as §1

Compound in test [3]: C=CCc1cccc(/C=N/NC(=O)CN2CCN(Cc3ccccc3)CC2)c1O [PAC-1] + O=C(c1cc(Cc2n[nH]c(=O)c3ccccc23)ccc1F)N1CCN(C(=O)C2CC2)CC1 [Olaparib] (partner 8 µM)
The gist of the method:
as §1

Compound in test [4]: C=CC(=O)N1CCC[C@@H](n2nc(-c3ccc(Oc4ccccc4)cc3)c3c(N)ncnc32)C1 [Ibrutinib] + CC(=O)c1c(C)c2cnc(Nc3ccc(N4CCNCC4)cn3)nc2n(C2CCCC2)c1=O [Palbociclib] (partner 0.5 µM)
The procedure, abridged: as §1

Regarding NCI-H650, the relative viability came to 0.871 in test [1] (first compound 0.02 µM); 1.02 in test [1] (first compound 0.06325 µM); 0.933 in test [1] (first compound 0.2 µM); 1.27 in test [1] (first compound 2 µM); 1.06 in test [2] (first compound 0.02 µM); 1.01 in test [2] (first compound 0.2 µM). In addition, the relative viability in test [2] (first compound 0.6325 µM) was found to be 1.12; in test [2] (first compound 2 µM), 1.1; in test [3] (first compound 0.02 µM) it was 0.328; in test [3] (first compound 0.06325 µM), 0.41; in test [3] (first compound 0.2 µM) it was 0.387; in test [3] (first compound 2 µM), 0.381. Moreover, the relative viability in test [4] (first compound 0.005 µM) was 0.399; in test [4] (first compound 0.01581 µM), 0.303; in test [4] (first compound 0.05 µM) it was 0.415; in test [4] (first compound 0.1581 µM), 0.414; in test [4] (first compound 0.5 µM), 0.358.
For NCI-H661, the relative viability in test [1] (first compound 0.02 µM) was 0.585; in test [1] (first compound 0.06325 µM), 0.591; in test [1] (first compound 0.2 µM), 0.581; in test [1] (first compound 2 µM), 0.585; in test [2] (first compound 0.02 µM) it was 1.16; in test [2] (first compound 0.2 µM), 0.961. For the same cell line, the relative viability is 1.11 in test [2] (first compound 0.6325 µM); 1.02 in test [2] (first compound 2 µM); 0.664 in test [3] (first compound 0.02 µM); 0.721 in test [3] (first compound 0.06325 µM); 0.684 in test [3] (first compound 0.2 µM); 0.505 in test [3] (first compound 2 µM). Further, the relative viability in test [4] (first compound 0.005 µM) turned out to be 0.365; in test [4] (first compound 0.01581 µM), 0.337; in test [4] (first compound 0.05 µM), 0.332; in test [4] (first compound 0.1581 µM), 0.366; in test [4] (first compound 0.5 µM), 0.304.
For the cell line NCI-H727, the relative viability was determined as 0.348 in test [1] (first compound 0.02 µM); 0.394 in test [1] (first compound 0.06325 µM); 0.414 in test [1] (first compound 0.2 µM); 0.414 in test [1] (first compound 2 µM); 1.37 in test [2] (first compound 0.02 µM); 0.933 in test [2] (first compound 0.2 µM). The relative viability in test [2] (first compound 0.6325 µM) was 0.893; in test [2] (first compound 2 µM) it was 1.01; in test [3] (first compound 0.02 µM), 0.753; in test [3] (first compound 0.06325 µM), 0.715; in test [3] (first compound 0.2 µM), 0.568; in test [3] (first compound 2 µM), 0.68. For the same cell line, the relative viability in test [4] (first compound 0.005 µM) is 0.593; in test [4] (first compound 0.01581 µM), 0.593; in test [4] (first compound 0.05 µM), 0.644; in test [4] (first compound 0.1581 µM), 0.644; in test [4] (first compound 0.5 µM), 0.505.
As to NCI-H838, the relative viability stood at 0.46 in test [1] (first compound 0.02 µM); 0.509 in test [1] (first compound 0.06325 µM); 0.459 in test [1] (first compound 0.2 µM); 0.528 in test [1] (first compound 2 µM); 1.3 in test [2] (first compound 0.02 µM); 1.25 in test [2] (first compound 0.2 µM). Further, the relative viability in test [2] (first compound 0.6325 µM) was 1.24; in test [2] (first compound 2 µM), 0.982; in test [3] (first compound 0.02 µM), 0.715; in test [3] (first compound 0.06325 µM), 0.735; in test [3] (first compound 0.2 µM), 0.727; in test [3] (first compound 2 µM), 0.656. The relative viability was 0.178 in test [4] (first compound 0.005 µM); 0.209 in test [4] (first compound 0.01581 µM); 0.202 in test [4] (first compound 0.05 µM); 0.202 in test [4] (first compound 0.1581 µM); 0.234 in test [4] (first compound 0.5 µM).
Regarding NCI-H1355, the relative viability turned out to be 0.464 in test [1] (first compound 0.02 µM); 0.467 in test [1] (first compound 0.06325 µM); 0.416 in test [1] (first compound 0.2 µM); 0.419 in test [1] (first compound 2 µM); 1.1 in test [2] (first compound 0.02 µM); 1.15 in test [2] (first compound 0.2 µM). Besides, the relative viability in test [2] (first compound 0.6325 µM) was found to be 0.921; in test [2] (first compound 2 µM) it was 0.977; in test [3] (first compound 0.02 µM), 0.78; in test [3] (first compound 0.06325 µM), 0.693; in test [3] (first compound 0.2 µM) it was 0.724; in test [3] (first compound 2 µM), 0.74. Besides, the relative viability in test [4] (first compound 0.01581 µM) came to 0.362; in test [4] (first compound 0.05 µM), 0.359; in test [4] (first compound 0.1581 µM) it was 0.422; in test [4] (first compound 0.5 µM), 0.295.
On to NCI-H1395, for which the relative viability in test [1] (first compound 0.02 µM) was found to be 1.1; in test [1] (first compound 0.06325 µM), 1; in test [1] (first compound 0.2 µM), 0.976; in test [1] (first compound 2 µM), 0.974; in test [2] (first compound 0.02 µM), 1.1; in test [2] (first compound 0.2 µM) it was 0.968. Also, the relative viability worked out at 0.949 in test [2] (first compound 0.6325 µM); 0.908 in test [2] (first compound 2 µM); 0.493 in test [3] (first compound 0.02 µM); 0.44 in test [3] (first compound 0.06325 µM); 0.485 in test [3] (first compound 0.2 µM); 0.46 in test [3] (first compound 2 µM). In addition, the relative viability in test [4] (first compound 0.005 µM) was found to be 0.55; in test [4] (first compound 0.01581 µM), 0.672; in test [4] (first compound 0.05 µM), 0.648; in test [4] (first compound 0.1581 µM) it was 0.623; in test [4] (first compound 0.5 µM), 0.612.
In the case of NCI-H1437, the relative viability in test [1] (first compound 0.02 µM) was 0.555; in test [1] (first compound 0.06325 µM), 0.511; in test [1] (first compound 0.2 µM) it was 0.494; in test [1] (first compound 2 µM), 0.525; in test [2] (first compound 0.02 µM), 1.34; in test [2] (first compound 0.2 µM), 1.27. Besides, the relative viability in test [2] (first compound 0.6325 µM) amounted to 1.31; in test [2] (first compound 2 µM), 1.32; in test [3] (first compound 0.02 µM), 0.606; in test [3] (first compound 0.06325 µM), 0.632; in test [3] (first compound 0.2 µM) it was 0.555; in test [3] (first compound 2 µM), 0.471. For the same cell line, the relative viability in test [4] (first compound 0.005 µM) is 0.336; in test [4] (first compound 0.01581 µM) it was 0.307; in test [4] (first compound 0.05 µM) it was 0.307; in test [4] (first compound 0.1581 µM) it was 0.235; in test [4] (first compound 0.5 µM), 0.374.
NCI-H1650: the relative viability in test [1] (first compound 0.02 µM) is 0.538; in test [1] (first compound 0.06325 µM) it was 0.54; in test [1] (first compound 0.2 µM), 0.335; in test [1] (first compound 2 µM) it was 0.542; in test [2] (first compound 0.02 µM), 1.05; in test [2] (first compound 0.2 µM), 1.46. Besides, the relative viability in test [2] (first compound 0.6325 µM) worked out at 1.2; in test [2] (first compound 2 µM) it was 1.17; in test [3] (first compound 0.02 µM), 0.709; in test [3] (first compound 0.06325 µM), 0.751; in test [3] (first compound 0.2 µM) it was 0.726; in test [3] (first compound 2 µM), 0.674. The relative viability in test [4] (first compound 0.005 µM) was 0.382; in test [4] (first compound 0.01581 µM), 0.305; in test [4] (first compound 0.05 µM) it was 0.314; in test [4] (first compound 0.1581 µM), 0.436; in test [4] (first compound 0.5 µM) it was 0.243.
